Assay results reported in patent US20230414754A1, “CONDITIONAL CONTROL OF UNIVERSAL CAR T CELLS THROUGH STIMULUS-REACTIVE ADAPTORS” (UNIVERSITY OF PITTSBURGH-OF THE COMMONWEALTH SYSTEM OF …, priority 2020, published 2023).

How the values were obtained:
[1] = test system: SNAPtag; experiment: Incubation of MTGase-made adaptor with SNAP protein, SDS-PAGE; type: biochemical; settings: SNAPtag 2 eq. per BG
Description: (§1) 55. FIGS. 26A and 26B show MTGase enzymatic antibody-adaptor conjugation. […] CD69 T cell activation marker expression on the CAR T cells was evaluated after 24 h. n=3 biol. reps.
(§2) 187. In a complementary, enzymatic conjugation approach we synthesized the terminal amine 11 from the commercially available PEG 10 (FIG. 12A), and target a conserved glutamine located in each of the heavy chains of the de-glycosylated IgG1 antibody through selective modification by the enzyme MTGase (FIG. 12B). This generates uniform conjugates in quantitative yields adding exactly two modifications using conserved glutamines as the only γ-carbonyl amide donors on dei-glycosylated IgGls, This method that has been used for dozens of clinical use ADCs. […] In addition, the site-specific adaptor was efficient at inducing T cell activity (FIG. 26B).

[2] = test system: CD20+ Raji target cells; experiment: SNAP-CAR T cell activation (CD69) with MTGase-produced site-specific adaptor; type: cell-based, human; settings: CD69 after 24 h
Description: as §1, §2

[3] = test system: SNAP-synNotch receptor; experiment: SNAP-synNotch receptor activation in Jurkat cells co-incubated with target cells (TagBFP output); type: cell-based
Description: 51. […] The system triggers Gal4-VP64 transcription factor-driven TagRFP expression. […] TagRFP levels are reported as mean fluorescence intensity (MFI), n=3 biologically independent experiments±s.d.
176. We created a universal adaptor synNotch to direct receptor activation and the resulting transcriptional gene output in response to interaction with BG-conjugated adaptor antibodies on the surface of target cells (FIG. 22). We cloned a SNAP-synNotch receptor consisting of the SNAPtag domain fused to the Notch core protein, and the Gal4-transcription factor (to turn on a gal4 promoter-driven TagBFP gene) and transduced Jurkat cells. […] Receptor activation was sensitive and tunable, with a significant response at an antibody concentration as low as 0.04 μglmL and increasing to a peak at 0.25 μg/mL. Response gene activation then decreased with increasing antibody indicative of a “hook effect”—as expected in ternary complex formation. BG-conjugated antibodies targeting other antigens were also capable of activating the SNAP-synNotch receptor in an antigen-specific manner indicating universality of the cell re-programming approach.

Substance | BG labeling by incubation with SNAP protein [1] | inducing T cell activity [2] | function of universal adaptor synNotch system [3]
RTX-BG: PEG2-BG labeled Rituximab adaptor made via MTGase conjugation | near complete | efficient | 
mSA2 |  |  | ineffective
